Test results published in PubChem BioAssay AID256 (DTP/NCI, 2004).
“And” between values parts separate entries of the source, which are not always exact repeats. Equal values may be shown once. Toxic doses and inconclusive results are not listed.

System: CD2F1 mice, L1210 leukemia ip, survival T/C
Assay: NCI In Vivo Anticancer Drug Screen. Data for tumor model L1210 Leukemia (intraperitoneal) in CD2F1 (CDF1) mice
Settings: higher = longer survival
Procedure, shortened: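 Ratio T/C, where T is the treated-group value and C the vehicle-dosed control value, from mice implanted with a transplantable tumor.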

In the case of COC(=O)c1ccc(SCC2=Nc3c(nc(N)[nH]c3=O)NCC2)cc1, the T/C (endpoint: mean survival time, dose: 0.38 mg/kg/injection, schedule: Q01DX009 (ip), vehicle: distilled water + Tween-80) is reported as 100 % of control, the T/C (endpoint: mean survival time, dose: 0.75 mg/kg/injection, schedule: Q01DX009 (ip), vehicle: distilled water + Tween-80) is reported as 101 % of control and the T/C (endpoint: mean survival time, dose: 1.5 mg/kg/injection, schedule: Q01DX009 (ip), vehicle: distilled water + Tween-80) is reported as 105 % of control. The T/C (endpoint: mean survival time, dose: 3.0 mg/kg/injection, schedule: Q01DX009 (ip), vehicle: distilled water + Tween-80) was 100 % of control, the T/C (endpoint: mean survival time, dose: 6.0 mg/kg/injection, schedule: Q01DX009 (ip), vehicle: distilled water + Tween-80) was 101 % of control and the T/C (endpoint: mean survival time, dose: 12.0 mg/kg/injection, schedule: Q01DX009 (ip), vehicle: distilled water + Tween-80) was 93 % of control. For the same compound, the T/C (endpoint: mean survival time, dose: 48.0 mg/kg/injection, schedule: Q01DX009 (ip), vehicle: distilled water + Tween-80) was 88 % of control.

In the case of Cc1cncn1Cc1ccccc1, the T/C (endpoint: mean survival time, dose: 50.0 mg/kg/injection, schedule: Q01DX009 (ip), vehicle: Klucel (hydroxypropylcellulose) (HPC)) is reported as 94 % of control, the T/C (endpoint: mean survival time, dose: 100.0 mg/kg/injection, schedule: Q01DX009 (ip), vehicle: Klucel (hydroxypropylcellulose) (HPC)) is reported as 108 % of control and the T/C (endpoint: mean survival time, dose: 200.0 mg/kg/injection, schedule: Q01DX009 (ip), vehicle: Klucel (hydroxypropylcellulose) (HPC)) is reported as 103 % of control.

For C[n+]1ccc2ccccc2c1, the T/C (endpoint: mean survival time, dose: 75.0 mg/kg/injection, schedule: Q01DX001 (ip), vehicle: saline) was 103 % of control and the T/C (endpoint: mean survival time, dose: 150.0 mg/kg/injection, schedule: Q01DX001 (ip), vehicle: saline) was 103 % of control.

Cc1ccc(S(=O)(=O)N/N=C/C(=O)O)cc1 was tested, and the T/C (endpoint: mean survival time, dose: 25.0 mg/kg/injection, schedule: Q01DX009 (ip), vehicle: other) was 117 % of control and 108 % of control, the T/C (endpoint: mean survival time, dose: 100.0 mg/kg/injection, schedule: Q01DX009 (ip), vehicle: other) was 123 % of control and the T/C (endpoint: mean survival time, dose: 100.0 mg/kg/injection, schedule: Q04DX003 (ip), vehicle: Klucel (hydroxypropylcellulose) (HPC)) was 150 % of control. For the same compound, the T/C (endpoint: mean survival time, dose: 100.0 mg/kg/injection, schedule: Q04DX003 (ip), vehicle: saline with Tween-80) was 123 % of control, the T/C (endpoint: mean survival time, dose: 200.0 mg/kg/injection, schedule: Q01DX009 (ip), vehicle: other) was 96 % of control and 102 % of control and the T/C (endpoint: mean survival time, dose: 400.0 mg/kg/injection, schedule: Q04DX003 (ip), vehicle: Klucel (hydroxypropylcellulose) (HPC)) was 186 % of control. The T/C (endpoint: mean survival time, dose: 600.0 mg/kg/injection, schedule: Q04DX003 (ip), vehicle: Klucel (hydroxypropylcellulose) (HPC)) was 114 % of control, the T/C (endpoint: mean survival time, dose: 600.0 mg/kg/injection, schedule: Q04DX003 (ip), vehicle: saline with Tween-80) was 153 % of control and the T/C (endpoint: median survival time, dose: 1.0 mg/kg/injection, schedule: Q03HX024 (ip), vehicle: saline) was 111 % of control. The T/C (endpoint: median survival time, dose: 2.0 mg/kg/injection, schedule: Q03HX016 (ip), vehicle: saline) was 124 % of control, the T/C (endpoint: median survival time, dose: 2.0 mg/kg/injection, schedule: Q03HX024 (ip), vehicle: saline) was 112 % of control and the T/C (endpoint: median survival time, dose: 4.0 mg/kg/injection, schedule: Q03HX008 (ip), vehicle: saline) was 124 % of control. For the same compound, the T/C (endpoint: median survival time, dose: 4.0 mg/kg/injection, schedule: Q03HX024 (ip), vehicle: saline) was 121 % of control, the T/C (endpoint: median survival time, dose: 8.0 mg/kg/injection, schedule: Q01DX009 (sc), vehicle: saline) was 102 % of control and the T/C (endpoint: median survival time, dose: 16.0 mg/kg/injection, schedule: Q01DX009 (oral), vehicle: saline) was 101 % of control. For the same compound, the T/C (endpoint: median survival time, dose: 16.0 mg/kg/injection, schedule: Q01DX009 (sc), vehicle: saline) was 104 % of control, the T/C (endpoint: median survival time, dose: 32.0 mg/kg/injection, schedule: Q01DX001 (sc), vehicle: saline) was 104 % of control and the T/C (endpoint: median survival time, dose: 32.0 mg/kg/injection, schedule: Q01DX009 (ip), vehicle: saline) was 166 % of control. For the same compound, the T/C (endpoint: median survival time, dose: 32.0 mg/kg/injection, schedule: Q01DX009 (oral), vehicle: saline) was 98 % of control, the T/C (endpoint: median survival time, dose: 32.0 mg/kg/injection, schedule: Q01DX009 (sc), vehicle: saline) was 116 % of control and the T/C (endpoint: median survival time, dose: 32.0 mg/kg/injection, schedule: Q03HX016 (ip), vehicle: saline) was 123 % of control. The T/C (endpoint: median survival time, dose: 32.0 mg/kg/injection, schedule: Q03HX024 (ip), vehicle: saline) was 92 % of control, the T/C (endpoint: median survival time, dose: 64.0 mg/kg/injection, schedule: Q01DX001 (sc), vehicle: saline) was 105 % of control and the T/C (endpoint: median survival time, dose: 64.0 mg/kg/injection, schedule: Q01DX009 (ip), vehicle: saline) was 157 % of control. The T/C (endpoint: median survival time, dose: 64.0 mg/kg/injection, schedule: Q01DX009 (oral), vehicle: saline) was 102 % of control, the T/C (endpoint: median survival time, dose: 64.0 mg/kg/injection, schedule: Q01DX009 (sc), vehicle: saline) was 116 % of control and the T/C (endpoint: median survival time, dose: 64.0 mg/kg/injection, schedule: Q04DX003 (ip), vehicle: saline) was 164 % of control. For the same compound, the T/C (endpoint: median survival time, dose: 128.0 mg/kg/injection, schedule: Q01DX001 (oral), vehicle: saline) was 102 % of control, the T/C (endpoint: median survival time, dose: 128.0 mg/kg/injection, schedule: Q01DX001 (sc), vehicle: saline) was 104 % of control and the T/C (endpoint: median survival time, dose: 128.0 mg/kg/injection, schedule: Q01DX009 (oral), vehicle: saline) was 102 % of control. For the same compound, the T/C (endpoint: median survival time, dose: 128.0 mg/kg/injection, schedule: Q01DX009 (sc), vehicle: saline) was 116 % of control, the T/C (endpoint: median survival time, dose: 128.0 mg/kg/injection, schedule: Q04DX003 (ip), vehicle: saline) was 168 % of control and the T/C (endpoint: median survival time, dose: 128.0 mg/kg/injection, schedule: Q08DX002 (ip), vehicle: saline) was 155 % of control. The T/C (endpoint: median survival time, dose: 256.0 mg/kg/injection, schedule: Q01DX001 (oral), vehicle: saline) was 98 % of control, the T/C (endpoint: median survival time, dose: 256.0 mg/kg/injection, schedule: Q01DX001 (sc), vehicle: saline) was 107 % of control and the T/C (endpoint: median survival time, dose: 256.0 mg/kg/injection, schedule: Q01DX009 (oral), vehicle: saline) was 105 % of control. For the same compound, the T/C (endpoint: median survival time, dose: 512.0 mg/kg/injection, schedule: Q01DX001 (oral), vehicle: saline) was 110 % of control, the T/C (endpoint: median survival time, dose: 512.0 mg/kg/injection, schedule: Q01DX001 (sc), vehicle: saline) was 112 % of control and the T/C (endpoint: median survival time, dose: 1024.0 mg/kg/injection, schedule: Q01DX001 (oral), vehicle: saline) was 123 % of control.
